Laboratory results from US5276177A, “Physiologically active substance” (Matsuno; Tetsuya, priority 1991, dated 1994).
In brackets after ≈: the same amount, converted by molar mass.

How the values were obtained:
cultured tumor cells = experiment: antitumor activity against cultured tumor cells (summary statement); assay type: cell-based
Procedure: (§1) Growth inhibition to Hela S3 cells
(§2) 0.1 Milliliter of a test compound properly diluted with an MEM culture containing 10% fetal bovine serum and 2 mM of glutamine was placed in each of 96 wells of a microtiter plate. Then, trypsinized HeLa S3 cells (ATCC HTB22) were adjusted with the above culture to form a solution containing 3×10^4 cells/ml, and 0.05 ml of the solution was added to each well.
(§3) The above plate was cultured in a carbonic acid gas incubator at 37° C. for 72 hours, and then culture supernatants were removed. 0.1 Milliliter of a culture medium containing 0.02% Neutral Red was added to each well, and the plate was cultured in the carbonic acid gas incubator at 37° C. for 1 hour to stain the cells. After culture supernatants were removed, the remainders were once washed with a physiological saline solution. Then, the dyestuff was extracted with 0.001N hydrochloric acid/30% ethanol, and the absorbance at 550 nm was measured with a microplate reader. In comparison between the absorbance of untreated cells and the absorbance of cells treated with the known concentration of the test compound, the growth inhibition ratio of the cells was calculated on the basis of the following equation. [formula] A: Absorbance of cells treated with the compound B: Absorbance of a well containing no cells
(§4) C: Absorbance of untreated cells […]

Solubility = assay type: physicochemical
HeLa S3 cells = experiment: Growth inhibition to Hela S3 cells (Neutral Red staining, 72 hours); assay type: cell-based; conditions: Homo sapiens, 37° C., MEM with 10% fetal bovine serum, 550 nm
Procedure: as §1, §2, §3, §4

growing cells = experiment: cell cycle analyzed with a flow cytometer; assay type: cell-based
[1] = Experientia 44, 230, (1988); cited from earlier work

Solubility (Solubility; in acidic water) | IC50 (HeLa S3 cells) | SMILES | antitumor activity (cultured tumor cells) | Solubility (Solubility; in methanol, ethyl acetate, chloroform and DMSO) | cell cycle effect (growing cells) | antitumor activity [1]
Sparingly soluble in acidic water | 87 µg/mL (≈ 271 µM) | CC(=CC(=O)O)CC[C@@]1(C)[C@H](CO)CC[C@@]2(C)C(C)=CCC[C@H]12 [novel physiologically active substance] | exhibits antitumor activity against cultured tumor cells | Soluble in methanol, ethyl acetate, chloroform and DMSO | terminated the growing cells at S phase and destroyed them | –
– | – | O=C(/C=C/c1ccc(O)c(O)c1)OCCc1ccccc1 [phenetyl cafeate] | – | – | – | has antitumor activity
